One series is described as follows: in vivo. The note with it: mouse, serum, sc.
The next series has as its system Balb/c mice. Kind of series: Dose escalation study and acute toxicity. The class given is in vivo, Mouse. As for the experimental part: Dose escalation study and evaluation of acute toxicity in mice
T o study whether a repeated subcutaneous dosing of Y9 has any local or systemic toxic effects on animals, the following dose escalation study was performed. Groups of 5 Balb/c mice were inoculated subcutaneously with 100 µl of 0.9 % saline (NaCl) solution containing either 200 nmol, 400 nmol or 800 nmol Y9 . Two control groups (a total of 10 mice) received only 0.9% saline. T he injections were repeated every other day f or a total of seven injections. B ody weig ht and general health observations were evaluated on a daily basis. At day 4 after the last inoculation of the solutions blood was collected under isof lurane anesthesia f or hematology and f or serum analysis by retro- orbital puncture. Organs (sk in, brain, heart, k idney, liver, lung, ovaries/testis, spleen, local and distal lymph nodes, mesentery, small intestine, stomach, pancreas) were isolated af ter euthanasia with an isof lurane overdose for histopathology and body weight-normalized organ weights (brain, kidney, heart, liver, spleen) were calculated.
W eights of the carcass, brain, heart, kidney, liver and spleen were determined and body weight-normalized organ weight in % was calculated as follows:
Body weight-normalized organ weight [%] = organ weight [g] x 100 […]
The following serum parameters were analyzed with the Vitros 250 (Johnson&Johnson) machine measuring parameters at 25°C: […] (CK), alk aline Phosphatase (ALP), Amylase, GOT/AST, GPT/ALT, GGT, LDH, Lipase, total protein (TP), Glucose (GLU), Cholesterol (CHOL), Triglyceride (TRIG), blood urea nitrogen (BUN), Creatinine (CREA), total bilirubin (TBIL), inorganic Phosphorus (PHOS), Sodium (Na), Potassium (K), Calcium (Ca), […]
(MCHC), banded neutrophils, segmented neutrophils, lymphocytes (Lymphs), monocytes (Monos), eosinophils (EOS), basophils (BASO). The organ sections were histopathological […]
pathological abnormalities f ound. […]
glycerin (f inal concentration 227 µg/ml). […]
on a nitrocellulose membrane. For calibration, control serum was spiked with Y9 in […]
The membrane was washed 3
The membrane was f inally washed 3 times in […]
quantitated using Image J software. The calibration samples were used to prepare a linear […]
values of < 0.05 were considered signif icant.

The test system of a further series is GPC-16 tumor cells. The experiment in a line: GPC-16 tumor model in guinea pigs. Type of series: in vivo, Guinea pig. Here is the method: by incubation with a 1:50 dilution of the secondary antibody (biotinylated goat -ant i-r at Ig G, BD Pharmingen, #554014 ). After incubation with horseradish peroxidase (HRP) coupled streptavidin color development was performed using the DAB substrate kit. All immunohistochemical stained tissue sections were counterstained using haemalaun or […]
Assessment of anti-tumor efficacy in the GPC -16 tumor model in guinea pig GPC-16 cells (guinea pig colorectal adenocarcinoma) were acquired from LGC and were cultured in Eagle’s minimum essential medium with 10% FCS and 100 U/ml Penicillin and 100 µg/ml Streptomycin. For each experiment 10 f emale guinea pigs (8- 10 weeks old) per group were immunosuppressed with an intraperitoneal injection of 200 mg/kg cyclophosphamide (CPA) one day bef ore the tumor inoculation and repeated every 7- 10 days for 4 week s. Efficacy of the CPA treatment was verif ied by routine blood analysis bef ore f irst CPA treatment and on a week ly basis thereafter. For the evaluation of the anti-tumor efficacy of the Y9 the 10 animals were divided into two groups of 5 animals. […] The presence of tumors in the sk in sections was evaluated by a board certif ied veterinarian pathologist using a scoring system. […]
T o study whether a repeated subcutaneous dosing of Y9 has any local or systemic toxic effects on animals, the following dose escalation study was performed. […] B ody weig ht and general health observations were evaluated on a daily basis. […] Organs (sk in, brain, heart, k idney, liver, lung, ovaries/testis, spleen, local and distal lymph nodes, mesentery, small intestine, stomach, pancreas) were isolated af ter euthanasia with an isof lurane overdose for histopathology and body weight-normalized organ weights (brain, kidney, heart, liver, spleen) were calculated.
W eights of the carcass, brain, heart, kidney, liver and spleen were determined and body weight-normalized organ weight in % was calculated as follows: […]

For series [1] the following is noted: fresh mouse serum, 60 µM, extraction and RP-HPLC (C4) quantification at 214 and 375 nm.
Experimental: vor t exing the sample was incubated f or 48 h. At specif ic time points, the solution was again
vortexed, a sample (95 µl) was withdra wn and subjected to ultraf iltration (Vivaspin 500, 10 k Da
cutoff; 15 min, 16,000 g). The f iltrate was put on ice while the f ilter remainder was mixed with
an equal volume of ethanol (95%), vortexed and centrifuged (5 min, 16.000 g). W ith the
resulting supernatant, this procedure was repeated. The f inal supernatant was mixed with an
equal volume of f iltrate, shock frozen in liq uid nitr og en and stored at - 80 °C until analysis. RP -
HPLC analysis was performed using an analytical C4- RP column with a gradient of 5-65%
absorption at 214 and 375 nm (specif ic absorption maximum of the nitro-tyrosine building block
The absorption peak observed at the
[2] abbreviates: Balb/c mice, s.c. 200, 400 or 800 nmol every two days for 14 days.
Where [3] appears, read: highest dose 800 nmol (printed 800 nm), repeated s.c., day 4 after last dose.

Structures are written as SMILES. Positions of bridges follow the written chain, without caps; N, C: chain ends. Non-standard residues stand in square brackets, D forms with d. Residues, ends and D or L forms follow the SMILES beside them. Chains are numbered I, II in the order given. *: point of attachment. PEG28 = NCCOCCOCCOCCOCCOCCOCCOCCOCCOCCOCCOCCOCCOCCOCCOCCOCCOCCOCCOCCOCCOCCOCCOCCOCCOCCOCCOCCOCCC(=O)O; Tyr(3-NO2) = N[C@@H](Cc1ccc(O)c([N+](=O)[O-])c1)C(=O)O; Hyp = O=C(O)[C@@H]1C[C@@H](O)CN1; For = O=C*

Experimental for in vivo: according to standard procedures. From 20 ml antiserum, 1.5 mg purified antibody were
isolated and stored in aliquots at -20 °C in PBS + 0.01% thimerosal, 0.1% BSA diluted 1:1 with
concentrations between 0.5 nM and 20 nM and s amples were also spotted in triplicates. After
drying, the membrane was soaked in TBST (150 mM NaCl, 50 mM Tris-HCl, pH 7.4, 0.05%
tween), blocked for 1 h at RT with 5% nonfat dry milk in TBST. The membrane was washed 3
1:2000 in TBST, washed 3 times, incubated 1 h at RT with anti-rabbit-HRP (GE Healthcare)
diluted 1:5,000 in 5% nonf at dry milk in TBST. The membrane was f inally washed 3 times in
TBST and then incubated with ECL prime substrate (GE Healthcare). Chemiluminescent
signals were recorded in an LAS-4000 mini Image reader (Fuji). Spot intensities were
For the statistical analysis, mean (M) and standard deviation (SD) were calculated. T he
statistical analysis was p erf ormed with the GraphPad Prism Software, Version 5.0 (Graph Pad,

Regarding `CC[C@H](C)[C@H](NC(=O)[C@H](CCSC)NC=O)C(=O)N[C@@H](Cc1ccccc1)C(=O)N[C@@H](CC(C)C)C(=O)NCC(=O)NCC(=O)N[C@@H](CCCCNC(=O)CCOCCOCCOCCOCCOCCOCCOCCOCCOCCOCCOCCOCCOCCOCCOCCOCCOCCOCCOCCOCCOCCOCCOCCOCCOCCOCCOCCOCCNC(=O)[C@H]1CSSC[C@@H](N)C(=O)N[C@H](CC(=O)O)C(=O)NCC(=O)N[C@@H](Cc2ccc(O)c([N+](=O)[O-])c2)C(=O)NCC(=O)N2C[C@H](O)C[C@H]2C(=O)N[C@@H](CC(N)=O)C(=O)N1)C(=O)N[C@@H](CCCCNC(=O)CCOCCOCCOCCOCCOCCOCCOCCOCCOCCOCCOCCOCCOCCOCCOCCOCCOCCOCCOCCOCCOCCOCCOCCOCCOCCOCCOCCOCCNC(=O)[C@H]1CSSC[C@@H](N)C(=O)N[C@H](CC(=O)O)C(=O)NCC(=O)N[C@@H](Cc2ccc(O)c([N+](=O)[O-])c2)C(=O)NCC(=O)N2C[C@H](O)C[C@H]2C(=O)N[C@@H](CC(N)=O)C(=O)N1)C(=O)O` [Y9] (I: H-[dC][dD]G[Tyr(3-NO2)]G[Hyp]N[dC][PEG28] / II: H-[dC][dD]G[Tyr(3-NO2)]G[Hyp]N[dC][PEG28] / III: For-MIFLGGKK-OH; disulfide I:1-I:8, II:1-II:8; amide I:C-III:7, II:C-III:8), the half-life in “in vivo” was about 2 h. For the same compound, in “in vivo” (200 nmol), the level at time molar at 1 h is 350 nM and the level at time molar at 7 h turned out to be 75 nM. Moreover, the “hematological analysis including differential hemogram of white blood cells” value with Balb/c mice (Balb/c mice, repeated s.c. dosing) is on record as “no significant changes”. For the same compound, in the series with Balb/c mice (Balb/c mice, repeated s.c. dosing, no histopathological abnormalities or steatosis in liver), the relative organ weights result is reported as “slightly enlarged liver weight”. In addition, the “histopathological effects in organs” value in the series on Balb/c mice (Balb/c mice, s.c. 200 nmol every two days for 14 days, liver, kidney, pancreas, spleen, heart, lung, ovaries, brain, stomach, intestine, mesentery) is on record as “No histopathological effects”. For the same compound, the “histopathological effects in organs” value with Balb/c mice (Balb/c mice, s.c. 400 nmol every two days for 14 days, same organs) is “No histopathological effects”. In addition, in the series with Balb/c mice (Balb/c mice, s.c. 800 nmol every two days for 14 days), the kidney histopathology entry is recorded as “moderate degenerative changes of the kidney”. In the series on Balb/c mice (setting [2]), the draining lymph nodes entry was “mild but significant dose-dependent immune infiltration and lymphoid hyperplasia”; the “local effects at the injection site” value was “increased neutrophil and monocyte infiltrates at the injection site”. Besides, in the series on Balb/c mice (setting [3]), the “amylase level in serum” value was “significantly increased”, the “blood urea nitrogen (BUN) level in serum” value is “significantly increased”, the “cholesterol level in serum” value is “significantly increased” and the “creatinine (CREA) level in serum” value is reported as “slightly but significant increased”. In the series with Balb/c mice (setting [3]), the “lipase level in serum” value was “slightly but significant increased” and the “triglycerides level in serum” value is recorded as “significantly increased”. Further, the “animals with tumors present after 35 days” value with GPC-16 tumor cells (single dose 200 nmol mixed with 1.6–2 × 10^7 GPC-16 cells and Matrigel, s.c., CPA-treated Dunkin Hartley guinea pigs, control 8 out of 9) was 3 out of 10. Further, in the series on GPC-16 tumor cells (single dose treatment during injection of tumor cells, guinea pigs), the “reduction of establishment of GPC-16 based tumor” value is reported as 67%. In the series with GPC-16 tumor cells (single s.c. dose 200 nmol), the “undesired effects in guinea pigs” value was “reddening at the injection site”. Also, the “time Y9 remains largely intact” value in series [1] was over 24 h.

One may read the half-life as how long it takes for the measured level to halve. The low end stands for rapid decline, the high end for slow decline.

These data come from PMC5730604.
